1 molecule from patent publication US8969413B2 can be followed below.

For data set [1], the system named is Mice. As to the kind of experiment: subcutaneous bicuculline (scBIC). The class given is in vivo. To be noted: Single IP drug dose, 2.7 mg/kg BIC; from 10-200 mg/kg; inconclusive?
The method, then:
Bicuculline (Bic) and Picrotoxin (Pic) are chemoconvulsants that cause clonic seizures in a manner similar to Metrazol (see scMET test). […] Therefore, as much as possible it is useful to differentiate novel AEDs pharmacologically. […]. At a previously determined time of peak effect (TPE), the animals are given a subcutaneous injection of either of the noted chemo-convulsants using the convulsive dose (CD97—a dose of 2.7 or 2.5 mg/kg, for Bic and Pic, respectively). The experimental animals are placed in isolation cages to minimize possible crowding stresses (Swinyard et al., 1961) and observed for the next 30 minutes (for Bic) or 45 minutes (for Pic) for the presence or absence of a seizure. An episode of clonic spasms, approximately 3-5 seconds, of the fore and/or hindlimbs, jaws, or vibrissae is used as the experimental endpoint.

The subject of data set [2] is Mice. The data set is described as follows: corneal kindling. Format: in vivo. The source says: Mice are kindled electrically with 3 sec stimulation, 8 mA, 60 Hz, and corneal electrodes to a criterion of 10 consecutive Stage 5 seizures (facial clonus and head nodding progressing to forelimb clonus, and finally rearing and falling accompanied by a generalized clonic seizure as described by Racine). Stage 5 is generally reached after twice daily stimulation for 8 days. With continued stimulation once a day, animals usually progress to a reproducible Stage 5 after 10-14 additional days. At least 72 hours after the mice have been kindled, the test substance is administered either i.p. or p.o. and, at the previously determined TPE, each animal is given the electrical stimulus indicated above. Following stimulation, the animals are observed for the presence or absence of the rearing and falling criteria of a Stage 5 seizure. Treated animals not displaying a Stage 3, 4, or 5 seizure are considered protected. The dose of the test substance is varied between the limits of 0 and 100% efficacy, and the ED50 (mean effective dose) and 95% confidence intervals calculated by probit analysis. Mean values and the S.E.M. are calculated for the length of clonus and seizure duration and p values are determined by the Student's t-test

The test system of data set [3] is Wistar Albino rats. The class given is in vivo. To be noted: 20 mg/kg versus vigabatrin 200 mg/kg, 45 and 90 days. The method, then: […]. The formulations for each treatment group were prepared fresh weekly in 0.9% normal saline.
All animals were acclimated for 7 days to the test facility prior to the start of dosing and were housed in individual polycarbonate cages. The cage environment uses a standard 12 hr/12 hr light dark cycle, with standard industrial fluorescent lighting during the light cycle. During the course of the study, the animals were monitored for mortality, moribundity, clinical signs of illness, feed intake, and body weight change. Any animals found in distress for more than 24 hours were humanely euthanized. […]. […] At the conclusion of the dosing phase (5 of each sex for 45 days and 10 of each sex for 90 days), the animals entered a 5-7 day “washout” period, after which electroretinograms (ERGs) were measured for both eyes. The animals were then humanely euthanized, by CO2 asphyxiation in accordance with AVMA guidelines on euthanasia, for post-mortem pathology examinations. […]
The electroretinograms were measured with an Espion^2 ERG system with ColorDome Ganzfeld type illuminator by Diagnosys. […]

Data set [4] addresses GABAB receptor (Rattus norvegicus, UniProt Q9Z0U4). The data set is described as follows: biochemical.
The target of data set [5] is T1, human ρ1 GABAC receptors (Homo sapiens, UniProt P24046).
T1 construct: expressed in transfected cells; host or cells: Xenopus laevis oocytes injected with ρ1 mRNA
As to the kind of experiment: GABAC receptor two-electrode voltage clamp in Xenopus laevis oocytes. The class given is cell-based. The method, then:
Human ρ1 cDNA encapsulated in pcDNA1.1 was linearized with Not1. Linearized cDNA was transcribed to mRNA using the T7 “mMESSAGE mMACHINE” kit (Ambion Inc. Austin, Tex., USA) as previously described. […] Eur. J. Pharmacol. 2001, 430, 185-192. GABAC receptor activity assays were performed in oocytes harvested from Xenopus laevis (housed in the Department of Veterinary Science at the University of Sydney) and defolliculated. The oocytes were stored in ND96 solution (in mM) NaCl (96), KCl (2), MgCl2 (1), CaCl2 (1.8), HEPES (hemi-Na salt; 5) supplemented with sodium pyruvate (2.5), theophylline (0.5), and 50 μg/ml^−1 gentamycin for 2-5 days post-injection.
Electrophysiological methods were performed as previously described. Hertz L, Juurlink B H J, Hertz E, Fosmark H and Schousboe A. Preparation of Primary Cultures of Mouse (Rat) Astrocytes, in A Dissection and Tissue Culture Mnual of the Nervous System (Shahar A, de Vellis J, Vernadakis A and Haber B eds) pp 105-108, Alan R. Liss, Inc., New York, 1989 Stage V-VI oocytes were injected with 10 ng 50 nl^−1 of ρ1 mRNA and then stored at 16° C. Recordings of receptor activity were obtained for 2-5 days by a two-electrode voltage clamp by means of a Geneclamp 500 amplifier (Axon Instruments Inc., Foster City, Calif.), a MacLab 2e recorder (AD Instruments, Sydney, NSW), and Chart version 3.6.3 program. Oocytes were voltage clamped at −60 mV, and the preparation was continually perfused with ND96 solution at room temperature. […] Compound 2 (CPP-115) was tested on three oocytes from at least two harvests.
Background: In two-electrode clamp one electrode senses voltage and the other passes current.

T1 sequence (P24046 21-479 limits assumed): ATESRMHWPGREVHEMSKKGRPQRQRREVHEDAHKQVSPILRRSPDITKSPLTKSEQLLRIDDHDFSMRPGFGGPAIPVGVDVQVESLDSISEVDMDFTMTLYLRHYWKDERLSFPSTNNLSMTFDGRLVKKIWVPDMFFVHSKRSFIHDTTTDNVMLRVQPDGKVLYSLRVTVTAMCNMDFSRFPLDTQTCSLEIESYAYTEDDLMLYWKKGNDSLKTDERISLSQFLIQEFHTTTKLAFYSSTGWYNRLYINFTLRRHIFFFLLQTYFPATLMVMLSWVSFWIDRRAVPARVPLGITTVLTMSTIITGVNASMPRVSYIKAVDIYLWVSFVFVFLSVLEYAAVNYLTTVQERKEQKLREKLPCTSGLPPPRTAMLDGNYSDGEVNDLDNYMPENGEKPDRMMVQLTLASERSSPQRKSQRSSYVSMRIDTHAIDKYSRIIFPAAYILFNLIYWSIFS
GABAB receptor, sequence (Q9Z0U4 17-960 limits assumed): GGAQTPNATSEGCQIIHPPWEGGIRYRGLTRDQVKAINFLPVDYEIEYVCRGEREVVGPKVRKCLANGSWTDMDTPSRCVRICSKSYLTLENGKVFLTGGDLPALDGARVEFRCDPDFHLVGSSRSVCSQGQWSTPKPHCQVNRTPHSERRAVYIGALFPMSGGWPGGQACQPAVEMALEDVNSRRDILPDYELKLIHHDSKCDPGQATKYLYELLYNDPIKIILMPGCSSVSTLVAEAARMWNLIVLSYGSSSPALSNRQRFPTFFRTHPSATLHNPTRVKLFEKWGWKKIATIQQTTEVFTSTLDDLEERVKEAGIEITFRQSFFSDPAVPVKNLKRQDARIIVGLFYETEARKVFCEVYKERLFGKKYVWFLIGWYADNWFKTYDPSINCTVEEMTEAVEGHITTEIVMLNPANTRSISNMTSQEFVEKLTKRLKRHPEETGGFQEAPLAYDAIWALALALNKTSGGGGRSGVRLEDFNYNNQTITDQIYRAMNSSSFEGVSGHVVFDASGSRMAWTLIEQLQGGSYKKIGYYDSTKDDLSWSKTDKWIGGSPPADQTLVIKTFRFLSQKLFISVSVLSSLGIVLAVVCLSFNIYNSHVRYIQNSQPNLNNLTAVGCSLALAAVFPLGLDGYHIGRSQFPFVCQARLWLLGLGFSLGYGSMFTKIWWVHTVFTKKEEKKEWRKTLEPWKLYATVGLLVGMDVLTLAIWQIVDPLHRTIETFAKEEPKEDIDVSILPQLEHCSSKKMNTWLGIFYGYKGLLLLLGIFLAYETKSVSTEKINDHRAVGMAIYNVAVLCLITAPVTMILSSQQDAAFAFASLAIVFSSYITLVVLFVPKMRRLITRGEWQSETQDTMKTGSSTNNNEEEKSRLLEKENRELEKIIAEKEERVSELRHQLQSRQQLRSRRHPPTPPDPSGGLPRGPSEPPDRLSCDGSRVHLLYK
GABAB receptor, sequence (O88871 41-940 partner): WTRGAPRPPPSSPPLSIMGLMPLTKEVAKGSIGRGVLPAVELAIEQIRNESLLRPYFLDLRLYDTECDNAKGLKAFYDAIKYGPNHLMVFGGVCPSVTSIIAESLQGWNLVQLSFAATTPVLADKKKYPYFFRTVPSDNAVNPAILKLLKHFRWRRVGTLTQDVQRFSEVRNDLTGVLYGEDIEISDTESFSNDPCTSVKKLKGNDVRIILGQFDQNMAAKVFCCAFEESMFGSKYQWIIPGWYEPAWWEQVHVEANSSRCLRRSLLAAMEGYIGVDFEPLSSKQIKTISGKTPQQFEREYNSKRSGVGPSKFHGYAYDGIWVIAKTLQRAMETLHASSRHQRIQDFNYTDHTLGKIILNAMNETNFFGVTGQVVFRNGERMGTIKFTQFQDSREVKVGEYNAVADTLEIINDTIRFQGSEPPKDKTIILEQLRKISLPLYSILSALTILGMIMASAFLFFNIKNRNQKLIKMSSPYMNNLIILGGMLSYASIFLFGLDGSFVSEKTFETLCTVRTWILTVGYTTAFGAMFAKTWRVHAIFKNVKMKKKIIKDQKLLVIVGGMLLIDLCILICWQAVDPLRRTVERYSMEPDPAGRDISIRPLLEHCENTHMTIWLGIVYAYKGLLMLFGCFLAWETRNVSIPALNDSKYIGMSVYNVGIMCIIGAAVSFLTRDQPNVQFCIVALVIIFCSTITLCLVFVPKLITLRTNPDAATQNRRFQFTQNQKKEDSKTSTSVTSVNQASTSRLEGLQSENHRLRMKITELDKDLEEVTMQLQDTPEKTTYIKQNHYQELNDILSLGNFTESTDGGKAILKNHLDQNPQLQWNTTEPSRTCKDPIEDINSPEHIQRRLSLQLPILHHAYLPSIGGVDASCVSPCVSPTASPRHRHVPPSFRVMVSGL

A word on the ED50: it is the midpoint of the dose-response relation. Usually IC50 stands for the concentration at which inhibition is half-maximal. Read a low IC50 as inhibition by little substance. On to `N[C@H]1C[C@@H](C(=O)O)CC1=C(F)F` [CPP-115], for which, in data set [1], the scBIC protected result is “About 50% protected”. Besides, the “Corn. Kind. TPE” value in data set [2] (Single IP drug dose, primed @ 8 mA, 60 Hz, 3 secs, for 8 days) was “TPE 4 hours”. For the same molecule, the ED50 in data set [2] (ip, 192 h, read-out: Corn. Kind. ED50) worked out at 20.1 mg/kg. For the same molecule, in data set [3], the “visual field defects compared with vigabatrin” value is listed as “less visual field defects than vigabatrin”. Besides, the IC50 in data set [4] is above 100 µM. Further, the “effect as agonist or antagonist at ρ1 GABAC receptors” value in data set [5] (100 μM) is given as “no effect as an agonist or antagonist”. Besides, the “activation of current in oocytes” value in data set [5] (100 μM alone, clamped at −60 mV) is reported as “did not activate a current”. Further, in data set [5] (100 μM co-applied with GABA 1 μM, p>0.05, n=3), the “reduction of the GABA response on co-application” value is listed as “did not significantly reduce the GABA response”.
